# Test results reported in patent publication US11999727B2 (Tango Therapeutics, Inc., priority 2020, dated 2024).
# pIC50: −log10 of the molar value. Read-outs that look alike come from different tables or passages of the source.
# Legend:
# [1] = tested on: HAP1 MTAP-deleted cell line; assay: SDMA in-cell western assay, HAP1 MTAP-deleted; format: cell-based; details: for pIC50: Homo sapiens; for MTAP intact/deleted ratio: IC50 ratio HAP1 MTAP-intact / HAP1 MTAP-deleted, SDMA in-cell western
# Text: (§1) Table 1 also indicates IC50 values in an MTAP-isogenic cell line pair for exemplary compounds in an SDMA in-cell western assay (columns 7-8). HAP1 MTAP-intact is a cell line in which endogenous levels of MTAP are expressed, and HAP1 MTAP-deleted is an MTAP-null cell line.
# [2] = tested on: HAP1 MTAP-deleted cell line; assay: Viability assay, MTAP-deleted cell line; format: cell-based; details: Homo sapiens
# Text: Table 1 additionally indicates IC50 values in a viability assay for the MTAP-deleted cell line (column 10), indicating the effect of treatment with compound on cell survival.
# [3] = tested on: HAP1 MTAP-intact cell line; assay: SDMA in-cell western assay, HAP1 MTAP-intact; format: cell-based; details: Homo sapiens
# Text: as §1
# PRMT5 [4] = target: T1, PRMT5 (Homo sapiens, UniProt O14744); assay: PRMT5 biochemical IC50 assay with MTA as cofactor; details: PRMT5, MTA as cofactor; read-out: MTA IC50
# T1 construct: purchased Viva (custom protein)
# T1 sequence (O14744 whole entry): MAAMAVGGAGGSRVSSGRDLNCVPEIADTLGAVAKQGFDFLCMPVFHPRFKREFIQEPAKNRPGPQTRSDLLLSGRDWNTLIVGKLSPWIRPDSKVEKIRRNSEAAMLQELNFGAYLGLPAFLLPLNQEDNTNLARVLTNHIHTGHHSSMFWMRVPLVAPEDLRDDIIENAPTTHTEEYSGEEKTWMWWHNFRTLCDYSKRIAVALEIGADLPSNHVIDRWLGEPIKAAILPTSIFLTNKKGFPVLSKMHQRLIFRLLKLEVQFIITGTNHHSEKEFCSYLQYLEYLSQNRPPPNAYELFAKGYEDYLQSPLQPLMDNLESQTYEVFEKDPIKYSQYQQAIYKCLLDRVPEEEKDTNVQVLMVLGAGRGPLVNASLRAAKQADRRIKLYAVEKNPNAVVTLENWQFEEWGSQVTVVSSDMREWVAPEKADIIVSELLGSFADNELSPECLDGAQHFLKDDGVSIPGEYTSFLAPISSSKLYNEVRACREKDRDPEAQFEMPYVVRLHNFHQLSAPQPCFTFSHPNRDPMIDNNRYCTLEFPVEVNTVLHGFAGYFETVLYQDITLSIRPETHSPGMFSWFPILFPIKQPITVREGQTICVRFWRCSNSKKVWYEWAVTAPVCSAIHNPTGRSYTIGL
# T1 sequence (Q9BQA1 whole entry partner): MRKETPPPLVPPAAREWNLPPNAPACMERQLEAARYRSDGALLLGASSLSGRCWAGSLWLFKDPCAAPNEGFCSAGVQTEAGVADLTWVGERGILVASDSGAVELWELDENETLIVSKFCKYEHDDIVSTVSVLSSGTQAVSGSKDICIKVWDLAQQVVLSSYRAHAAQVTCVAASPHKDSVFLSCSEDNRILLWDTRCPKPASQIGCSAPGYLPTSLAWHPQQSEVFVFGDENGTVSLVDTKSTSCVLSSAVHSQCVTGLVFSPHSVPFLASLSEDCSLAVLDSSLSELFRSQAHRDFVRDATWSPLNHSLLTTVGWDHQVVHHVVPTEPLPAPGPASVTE
# PRMT5 [5] = target: T1, PRMT5; assay: PRMT5 biochemical IC50 assay with SAM as cofactor; details: PRMT5, SAM as cofactor; read-out: SAM IC50
# PRMT5 [6] = target: T1, PRMT5; assay: PRMT5 biochemical IC50 assay with no cofactor; details: PRMT5, no cofactor
# Text: Table 1 indicates IC50 values (μM) against PRMT5 for exemplary compounds in the presence of SAM as cofactor, with no cofactor, and with MTA as cofactor, respectively (columns 4-6). […] Ki values can be calculated from the IC50 values as described in the Examples section. As detailed in the Examples section, for the assay performed in the presence of SAM, IC50=Ki×1.5 (Ki=IC50/1.5).
# [7] = HAP1, read-out: HAP1 MTAP deleted IC50
# [8] = HAP1, read-out: HAP1 MTAP deleted viability
# [9] = HAP1, read-out: MTAP HAP1 intact IC50
# [10] = HAP1, SDMA in-cell western, HAP1 MTAP-deleted, read-out: HAP 1 MTAP deleted IC50
# [11] = HAP1, viability assay, MTAP-deleted cell line, read-out: HAP1 MTAP deleted viability
# [12] = HAP1, viability assay, HAP1 MTAP-deleted, read-out: HAP1 MTAP deleted viability
# [13] = HAP1, viability IC50, MTAP-deleted cell line, read-out: HAP1 MTAP deleted viability
Compound,pIC50 (PRMT5 [4]),pIC50 (PRMT5 [5]),pIC50 (PRMT5 [6]; read-out: No Cofactor/rel IC50),"pIC50 [2, 11]",other results
"Cc1cc(NC(=O)C(=O)N2C[C@H](C)CC[C@H]2c2ccc3c(c2)CCC(=O)N3)cnc1N (single isomer, unassigned) [Compound 505]",–,–,–,–,"pIC50 [1, 7]: > 7.00; pIC50 [2, 8]: > 6.00; pIC50 [3, 9]: 6.00 to 7.00"
"C[C@@H]1CC[C@@H](c2ccc3[nH]cnc3c2)N(C(=O)C(=O)Nc2cncc(C(N)=O)c2)C1 (single isomer, unassigned) [Compound 344]",–,–,–,–,"pIC50 [1, 7]: 6.00 to 7.00; pIC50 [2, 8]: 5.00 to 6.00; pIC50 [3, 9]: < 6.00"
"Cc1cc(NC(=O)C(=O)N2C[C@@H](C)CC[C@H]2c2ccc3[nH]ncc3c2)cnc1N (single isomer, unassigned) [Compound 392]",–,–,–,–,"pIC50 [1, 7]: > 7.00; pIC50 [2, 8]: 5.00 to 6.00; pIC50 [3, 9]: < 6.00"
"C[C@@H]1CC[C@@H](c2ccc3scnc3c2)N(C(=O)C(=O)Nc2cncc(C(N)=O)c2)C1 (single isomer, unassigned) [Compound 588]",–,–,–,–,"pIC50 [1, 7]: < 6.00; pIC50 [2, 8]: < 5.00; pIC50 [3, 9]: < 6.00"
"C[C@@H]1CC[C@H](c2ccccc2)N(C(=O)C(=O)Nc2cncc(C(N)=O)c2)C1 (single isomer, unassigned) [Compound 75]",–,–,–,–,"pIC50 [1, 7]: < 6.00; pIC50 [3, 9]: < 6.00"
"Cc1cc(NC(=O)C(=O)N2C[C@H](C)CC[C@@H]2c2ccc(-c3ccn[nH]3)s2)cnc1N (racemic) [Compound 577, N-(6-amino-5-methyl-3-pyridyl)-2-[(2R,5R)-5-methyl-2-[5-(1H-pyrazol-5-yl)-2-thienyl]-1-piperidyl]-2-oxo-acetamide]",–,–,–,–,"pIC50 [1, 10]: < 6.00; MTAP intact/deleted ratio [1]: B (an IC50 ratio greater than or equal to 3 fold but lower than 10 fold); pIC50 ([3]; HAP1, SDMA in-cell western, HAP1 MTAP-intact, read-out: MTAP HAP1 intact IC50): < 6.00"
"Cc1cncc(NC(=O)C(=O)N2CC(C)CCC2c2ccccc2)c1 (stereo not drawn) [Compound 1, 2-(5-methyl-2-phenylpiperidin-1-yl)-N-(5-methylpyridin-3-yl)-2-oxoacetamide]",–,–,–,–,"pIC50 [1, 7]: < 6.00; pIC50 [3, 9]: < 6.00"
"COc1ncc(NC(=O)C(=O)N2C[C@@H](C)CC[C@@H]2c2ccc3sc(N)nc3c2)cc1C(N)=O (racemic) [Compound 954, 5-[[2-[(2R,5S)-2-(2-amino-1,3-benzothiazol-5-yl)-5-methyl-1-piperidyl]-2-oxo-acetyl]amino]-2-methoxy-pyridine-3-carboxamide]",6.30 to 7.30,6.30 to 7.30,6.30 to 7.30,> 6.00,–
"Cc1cc(NC(=O)C(=O)N2C[C@@H](C)C(F)(F)C[C@@H]2c2ccccc2)cnc1N (single isomer, unassigned) [Compound 713]",< 6.30,< 6.30,< 6.30,–,"pIC50 [2, 12]: < 5.00"
"C[C@@H]1CC[C@@H](c2cc(F)cc(F)c2)N(C(=O)C(=O)Nc2cncc(C(N)=O)c2)C1 (racemic) [Compound 416, rac-5-{2-[(2R,5S)-2-(3,5-Difluorophenyl)-5-methylpiperidin-1-yl]-2-oxoacetamido}pyridine-3-carboxamide]",6.30 to 7.30,6.30 to 7.30,6.30 to 7.30,5.00 to 6.00,–
"COc1ncc(NC(=O)C(=O)N2C[C@@H](C)CC[C@H]2C2CCCC2)cc1C(N)=O (single isomer, unassigned) [Compound 295]",< 6.30,< 6.30,< 6.30,< 5.00,–
"Cc1cc(NC(=O)C(=O)N2C[C@@H](C)CC[C@@H]2c2ccc(S(C)(=O)=O)cc2)cnc1N (single isomer, unassigned) [Compound 976]",> 7.30,6.30 to 7.30,6.30 to 7.30,5.00 to 6.00,–
"CNS(=O)(=O)c1ccc([C@@H]2CC[C@@H](C)CN2C(=O)C(=O)Nc2cncc(C(N)=O)c2)cc1 (single isomer, unassigned) [Compound 723]",< 6.30,< 6.30,< 6.30,–,"pIC50 [2, 12]: < 5.00"
"C[C@@H]1CC[C@H](c2ccc(O)nc2)N(C(=O)C(=O)Nc2cncc(C(N)=O)c2)C1 (single isomer, unassigned) [Compound 401]",> 7.30,6.30 to 7.30,6.30 to 7.30,< 5.00,–
"C[C@@H]1CC[C@@H](c2ccc3c(c2)CC(=O)N3)N(C(=O)C(=O)Nc2cncc(C(N)=O)c2)C1 (single isomer, unassigned) [Compound 325]",–,–,–,–,"pIC50 [1, 7]: < 6.00; pIC50 [3, 9]: < 6.00"
"Cc1cc(NC(=O)C(=O)N2C[C@@H](C)CC[C@@H]2[C@H]2CC[C@H](O)CC2)cnc1N (single isomer, unassigned) [Compound 434]",< 6.30,< 6.30,< 6.30,< 5.00,–
"COc1ncc(NC(=O)C(=O)N2C[C@@H](C)CC[C@@H]2c2ccc3c(c2)CCC(=O)N3)cc1C(N)=O (single isomer, unassigned) [Compound 673]",< 6.30,< 6.30,< 6.30,–,"pIC50 [2, 13]: < 5.00"
"C[C@H]1CC[C@H](c2ccc3c(c2)CCCN3)N(C(=O)C(=O)Nc2cncc(C(N)=O)c2)C1 (single isomer, unassigned) [Compound 426]",< 6.30,< 6.30,< 6.30,< 5.00,–
"C[C@@H]1CC[C@@H](c2ccc3sc(N)nc3c2)N(C(=O)C(=O)Nc2cncc(C(N)=O)c2)C1 (single isomer, unassigned) [Compound 1001]",< 6.30,< 6.30,< 6.30,< 5.00,–
"CC(=O)N[C@H]1CC[C@H]([C@H]2CC[C@H](C)CN2C(=O)C(=O)Nc2cnc(N)c(C)c2)CC1 (single isomer, unassigned) [Compound 296]",6.30 to 7.30,< 6.30,< 6.30,< 5.00,–
"Cc1cc(NC(=O)C(=O)N2C[C@H](C)CC[C@H]2c2ccc(C(C)O)cc2)cnc1N (mixture of isomers) [Compound 956, N-(6-amino-5-methyl-3-pyridyl)-2-[(2R,5S)-2-[4-(1-hydroxyethyl)phenyl]-5-methyl-1-piperidyl]-2-oxo-acetamide]",6.30 to 7.30,6.30 to 7.30,6.30 to 7.30,5.00 to 6.00,–

# The next lines start with results.
pIC50 (PRMT5 [4]),pIC50 (PRMT5 [5]),pIC50 (PRMT5 [6]; read-out: No Cofactor/rel IC50),Compound,"pIC50 [2, 11]",other results
< 6.30,< 6.30,< 6.30,"C[C@H]1CC[C@H](c2ccc(NS(C)(=O)=O)nc2)N(C(=O)C(=O)Nc2cncc(C(N)=O)c2)C1 (single isomer, unassigned) [Compound 985]",< 5.00,–
> 7.30,6.30 to 7.30,6.30 to 7.30,Cc1cc(NC(=O)C(=O)N2C[C@H](C)CC[C@H]2c2ccc3[nH]c(N)nc3c2)cnc1N (racemic) [Compound 990],5.00 to 6.00,–
< 6.30,< 6.30,< 6.30,"COc1ncc(NC(=O)C(=O)N2C[C@H](C)CC[C@H]2c2ccc3sc(C(F)(F)F)nc3c2)cc1C(N)=O (single isomer, unassigned) [Compound 1030]",< 5.00,–
< 6.30,< 6.30,< 6.30,"C[C@H]1CC[C@H](c2cc(F)c3[nH]ncc3c2)N(C(=O)C(=O)Nc2cncc(C(N)=O)c2)C1 (single isomer, unassigned) [Compound 680]",–,"pIC50 [2, 13]: < 5.00"
6.30 to 7.30,< 6.30,–,"Cc1cc(NC(=O)C(=O)N2C[C@@H]3CC[C@@H](C3)[C@@H]2c2ccccc2)cnc1N (single isomer, unassigned) [Compound 62]",< 5.00,pIC50 (PRMT5 [6]; read-out: No Cofactor/ rel IC50): < 6.30
6.30 to 7.30,6.30 to 7.30,< 6.30,"NC(=O)c1cncc(NC(=O)C(=O)N2CCC3C(CCCN3Cc3ccccc3)C2)c1 (stereo not drawn) [Compound 412, 5-[2-(1-Benzyl-decahydro-1,6-naphthyridin-6-yl)-2-oxoacetamido]pyridine-3-carboxamide]",< 5.00,–
< 6.30,< 6.30,< 6.30,"Cc1cc(NC(=O)C(=O)N2C[C@@H](C)CC[C@@H]2c2ccncc2)cnc1N (single isomer, unassigned) [Compound 609]",–,"pIC50 [1, 10]: < 6.00; MTAP intact/deleted ratio [1]: C (an IC50 ratio of less than 3 fold); pIC50 [2, 13]: < 5.00"
< 6.30,< 6.30,< 6.30,"C[C@@H]1CC[C@@H](c2cccc(Cl)c2)N(C(=O)C(=O)Nc2cncc(C(N)=O)c2)C1 (single isomer, unassigned) [Compound 441]",< 5.00,–
< 6.30,< 6.30,< 6.30,"C[C@H]1CC[C@H](c2ccc(NCC(=O)N(C)C)cc2)N(C(=O)C(=O)Nc2cncc(C(N)=O)c2)C1 (single isomer, unassigned) [Compound 1082]",< 5.00,–
